Laboratory results: ChEMBL document CHEMBL1130835, “Peptidyl beta-homo-aspartals: specific inhibitors of interleukin-1 beta converting enzyme and its homologues (caspases)” (Bioorg Med Chem Lett, 1998)

Legend:
Prothrombin = Prothrombin (Homo sapiens, UniProt P00734); test: Ability to inhibit Thrombin was evaluated by amidolytic method using fluorogenic or chromogenic substrates
Serine protease 1 = Serine protease 1 (Homo sapiens, UniProt P07477); test: Ability to inhibit Trypsin was evaluated by amidolytic method using fluorogenic or chromogenic substrates
Caspase-3 [1] = molecular target: T1, Caspase-3 (Homo sapiens, UniProt P42574); test: Amidolytic activity of THP.1 cell lysate against Caspase-3 using C3-Asp-AMC as a substrate; type: cell-based
T1 sequence (P42574 whole entry): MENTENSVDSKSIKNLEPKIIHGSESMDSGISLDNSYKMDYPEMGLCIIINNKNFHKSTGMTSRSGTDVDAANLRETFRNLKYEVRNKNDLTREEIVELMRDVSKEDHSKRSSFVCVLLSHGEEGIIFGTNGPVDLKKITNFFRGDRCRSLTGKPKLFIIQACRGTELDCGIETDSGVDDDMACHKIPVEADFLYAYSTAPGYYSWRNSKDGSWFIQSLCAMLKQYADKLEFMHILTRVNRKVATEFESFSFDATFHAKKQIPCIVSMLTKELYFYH

Caspase-1 [2] = molecular target: T2, Caspase-1 (Homo sapiens, UniProt P29466); test: Amidolytic activity of THP.1 cell lysate against IL-1 beta converting enzyme using C1-Asp-AMC as a substrate; type: cell-based
T2 sequence (P29466 whole entry): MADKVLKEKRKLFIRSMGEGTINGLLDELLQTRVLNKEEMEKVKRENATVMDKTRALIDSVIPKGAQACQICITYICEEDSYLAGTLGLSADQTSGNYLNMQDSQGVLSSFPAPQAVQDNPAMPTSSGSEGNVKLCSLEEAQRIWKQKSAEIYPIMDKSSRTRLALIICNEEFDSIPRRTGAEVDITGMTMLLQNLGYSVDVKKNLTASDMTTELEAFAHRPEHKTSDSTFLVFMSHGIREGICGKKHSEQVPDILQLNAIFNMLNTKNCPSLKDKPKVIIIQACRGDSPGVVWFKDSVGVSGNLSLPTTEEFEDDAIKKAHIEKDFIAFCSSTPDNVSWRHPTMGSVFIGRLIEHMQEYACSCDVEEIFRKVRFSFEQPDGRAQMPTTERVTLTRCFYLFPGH

Papain = molecular target: T3, Papain (Carica papaya, UniProt P00784); test: Ability to inhibit papain was evaluated by amidolytic method using fluorogenic or chromogenic substrates
T3 sequence (P00784 whole entry): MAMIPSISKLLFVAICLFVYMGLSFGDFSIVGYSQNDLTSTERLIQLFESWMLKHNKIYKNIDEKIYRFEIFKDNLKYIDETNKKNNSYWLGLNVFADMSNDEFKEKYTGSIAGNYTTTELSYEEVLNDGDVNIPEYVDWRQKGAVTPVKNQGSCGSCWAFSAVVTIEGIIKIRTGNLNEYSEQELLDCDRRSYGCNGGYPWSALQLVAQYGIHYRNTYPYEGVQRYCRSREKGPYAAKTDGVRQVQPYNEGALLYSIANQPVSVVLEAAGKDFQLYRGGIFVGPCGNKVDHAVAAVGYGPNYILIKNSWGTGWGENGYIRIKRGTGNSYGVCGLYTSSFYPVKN

Caspase-3 [3] = molecular target: T1, Caspase-3; test: Amidolytic activity of THP.1 cell lysate against Caspase-3 using C3-Asp-AMC as a substrate at 10e -4 M concentration; NI is No Inhibition
Caspase-1 [4] = molecular target: T2, Caspase-1; test: Ability to inhibit IL-1 beta converting enzyme was evaluated in LPS-stimulated human whole blood; type: tissue-based

Serine protease 1, sequence (P07477 whole entry): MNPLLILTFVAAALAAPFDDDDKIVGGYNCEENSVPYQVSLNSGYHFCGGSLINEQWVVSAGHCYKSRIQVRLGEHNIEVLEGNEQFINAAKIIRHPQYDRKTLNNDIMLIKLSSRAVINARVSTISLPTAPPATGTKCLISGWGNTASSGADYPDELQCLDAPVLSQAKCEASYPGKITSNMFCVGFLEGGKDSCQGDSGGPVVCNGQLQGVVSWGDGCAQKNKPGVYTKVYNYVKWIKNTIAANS

SMILES: CC(C)(C)OC(=O)N[C@H](Cc1ccccc1)C(=O)N1CCC[C@@H]1C(=O)N[C@H](C=O)CCCNC(=N)N
- IC50 (Prothrombin): 9 nM
- IC50 (Serine protease 1): 3 nM

SMILES: CC(=O)N[C@@H](CC(=O)O)C(=O)N[C@@H](CCC(=O)O)C(=O)N[C@H](C(=O)N[C@H](CC=O)CC(=O)O)C(C)C
- IC50 (Caspase-3 [1]): 438 nM
- IC50 (Caspase-1 [2]): 22.3 nM

SMILES: CC(C)COC(=O)N[C@@H](Cc1ccccc1)C(=O)N[C@H](CC=O)CCCNC(=N)N
- IC50 (Papain): 105000 nM

SMILES: CC(C)COC(=O)N[C@@H](Cc1ccccc1)C(=O)N[C@@H](C=O)CCCN=C(N)N
- IC50 (Papain): 12500 nM

SMILES: CC(=O)N[C@@H](Cc1ccc(O)cc1)C(=O)N[C@H](C(=O)N[C@@H](C)C(=O)N[C@H](CC=O)CC(=O)O)C(C)C
- IC50 (Caspase-3 [3]): Not Active
- IC50 (Caspase-1 [4]): 2900 nM
- IC50 (Caspase-1 [2]): 142000 nM

SMILES: CC(C)(C)OC(=O)N[C@H](Cc1ccccc1)C(=O)N1CCC[C@@H]1C(=O)N[C@@H](C=O)CCCN=C(N)N
- IC50 (Prothrombin): 5440 nM
- IC50 (Serine protease 1): 1790 nM

SMILES: CC(=O)N[C@@H](CC(=O)O)C(=O)N[C@@H](CCC(=O)O)C(=O)N[C@H](C(=O)N[C@H](C=O)CC(=O)O)C(C)C
- IC50 (Caspase-3 [3]): Not Active
- IC50 (Caspase-1 [2]): 70000 nM

SMILES: CC[C@H](C)[C@H](NC(=O)[C@H](CCCN=C(N)N)NC(=O)OCc1ccccc1)C(=O)N[C@H](C=O)Cc1ccccc1
- IC50 (Papain): 70 nM

SMILES: CC[C@H](C)[C@H](NC(=O)[C@H](CCCN=C(N)N)NC(=O)OCc1ccccc1)C(=O)N[C@H](CC=O)Cc1ccccc1
- IC50 (Papain): 65000 nM

SMILES: CC(=O)N[C@@H](Cc1ccc(O)cc1)C(=O)N[C@H](C(=O)N[C@@H](C)C(=O)N[C@H](C=O)CC(=O)O)C(C)C
- IC50 (Caspase-3 [1]): 190000 nM
- IC50 (Caspase-1 [4]): 2000 nM
- IC50 (Caspase-1 [2]): 68000 nM

SMILES: CC[C@H](C)[C@H](NC(=O)[C@H](CCCN=C(N)N)NC(=O)OCc1ccccc1)C(=O)N[C@@H](C=O)Cc1ccccc1
- IC50 (Papain): 8500 nM

SMILES: CC(C)COC(=O)N[C@@H](Cc1ccccc1)C(=O)N[C@H](C=O)CCCNC(=N)N
- IC50 (Papain): 130 nM

SMILES: CC(C)(C)OC(=O)N[C@H](Cc1ccccc1)C(=O)N1CCC[C@@H]1C(=O)N[C@H](CC=O)CCCN=C(N)N
- IC50 (Prothrombin): 190 nM
- IC50 (Serine protease 1): 1760 nM
